Source: publication PMC3616001, “A Novel ^99mTc-Labeled Molecular Probe for Tumor Angiogenesis Imaging in Hepatoma Xenografts Model: A Pilot Study” (PLoS ONE, 2013)
Bridges are numbered along the chain shown (N, C = ends). Where no end group is shown, it is not given here. [ ]: non-standard residue; d: D form.

Legend:
[1] = type: in vitro ADME
Procedure: For the quality control of labeling, a double-phase paper chromatography on Xinhua no. 1 filter paper was performed to measure labeling efficiency and radiochemical purity, with acetone and ethanol: ammonia: water (2∶1∶5) as mobile phase. A sample of 100 µL ^99mTc-RRL at room temperature was used to observe the in vitro stability. And the in vitro stability was also determined by incubating 100 µL ^99mTc-RRL with 900 µL of normal saline at room temperature and 900 µL of freshly collected serum at 37°C, respectively. The three aliquots were then analyzed at 0, 1, 2, 4 and 6 h by paper chromatography.

[2] = In vitro stability at room temperature, neat and in normal saline (radiochemical purity by paper chromatography); type: physicochemical; settings: analysed at 0, 1, 2, 4 and 6 h by paper chromatography, average of 3 sampling points
Procedure: For the quality control of labeling, a double-phase paper chromatography on Xinhua no. 1 filter paper was performed to measure labeling efficiency and radiochemical purity, with acetone and ethanol: ammonia: water (2∶1∶5) as mobile phase.
A sample of 100 µL ^99mTc-RRL at room temperature was used to observe the in vitro stability. And the in vitro stability was also determined by incubating 100 µL ^99mTc-RRL with 900 µL of normal saline at room temperature and 900 µL of freshly collected serum at 37°C, respectively. The three aliquots were then analyzed at 0, 1, 2, 4 and 6 h by paper chromatography.

HepG2 xenografts = assay: Planar gamma imaging of tumor xenografts; type: in vivo, BALB/c nu/nu mice
Procedure: 12 BALB/c nu/nu mice with HepG2 xenografts were divided into 4 groups of 3 mice each (experimental, blocking, control and micro-PET group). The tumors were about 1 cm diameter for planar gamma or micro-PET imaging.
In experimental group, 7.4 MBq ^99mTc-RRL (100 µl, diluted with phosphate buffer, pH 7.4), which were purified and separated by Sephadex G25 gel-filtration column, were then injected into each mouse via lateral tail vein. In blocking group, 500 µg unlabeled RRL was injected 30 minutes before injection of ^99mTc-RRL. In control group, each mouse was only administered with 7.4 MBq Na^99mTcO4. All injections were successful with no leakage.
A whole-body planar imaging was performed at 1, 2, 4 and 6 h after injection in the Department of Nuclear Medicine, Peking University First Hospital, using SPECT (SPR SPECT; GE Healthcare, Inc.) equipped with a low-energy, high-resolution, parallel-hole collimator. Planar images were acquired 200,000 counts with a zoom factor of 2.0, and were digitally stored in a 256×256 matrix size.

[3] = system: mice bearing HepG2 xenografts; parameters: species or system BALB/c nu/nu mice; settings: mouse, in vivo
Source text: BALB/c nu/nu mice (female, 18 ± 2 g, 3- to 4-wk-old; Department of Laboratory Animal Science, Peking University First Hospital) were used in this study. The mice were inoculated with 1×10^7 HepG2 cells in the right upper limbs, and the tumors were allowed to grow to about a 1 cm diameter for largest diameter which could be measured. The mice were maintained using a standard diet, bedding and environment, with free access to food and drinking water.
40 BALB/c nu/nu mice with HepG2 xenografts were randomly divided into 8 groups (6 experimental groups, 1 blocking group and 1 control group) of 5 mice each. The experimental groups were treated with ^99mTc-RRL directly, and the blocking group was treated with excessive unlabeled RRL (500 µg, dissolved in 50 µL, 0.5 M, pH = 7.4 phosphate buffer) from lateral tail vein 30 minutes before injection of the radiolabeled derivative. The control group was administered with Na^99mTcO4 only.
The radiolabeled compounds were purified and isolated from the Sephadex G25 gel-filtration column, 1,850 kBq of ^99mTc-RRL was injected into each mouse via the lateral tail vein. All injections were successful with no leakage. The animals of 6 experimental groups were sacrificed by cervical dislocation at 15 min, 30 min, 1, 2, 4 and 6 h after injection, respectively. At 6 h, the blocking and control group were also studied.
The mice were dissected and tissues of interest (blood, heart, liver, spleen, lung, kidney, stomach, small intestine, bladder, bone, skeletal muscle and tumor) were weighed, and their radioactivity was measured using a γ-well counter, which was equipped with a NaI(Tl) crystal detector and coupled to a high gain PMT for maximum efficiency of 80%, along with a standard solution of the injection. Radioactivity results were recorded as the percentage injected activity per gram (%ID/g) of tissue corrected for background and decay.

Radiochemical purity over 6 hours in fresh 37°C serum [1]: more than 93%
Radiochemical purity over 6 hours at room temperature (RT) ([2]; 100 µL sample at room temperature): more than 93%
Radiochemical purity over 6 hours in normal saline (NS) at RT ([2]; 100 µL with 900 µL normal saline at room temperature): more than 93%
Blood clearance: tracer cleared from blood [3]: more than 71.3%
Ratio of tumor-to-blood [3]: 1.95
Ratio of tumor-to-liver [3]: 1.98
Ratio of tumor-to-muscle [3]: exceeded 6.5
Tracer cleared from tumor [3]: less than 4.39%
Substance: G[dA]GGK[dS][dS]CGGRRLGGC-NH2 (disulfide 8-16 (inferred)) [^99mTc-RRL, cyclic (disulfide) RRL peptide radiolabeled with 99mTc by a one-step method]
Tumor visualisation in planar gamma imaging, blocking group (HepG2 xenografts; 500 µg unlabeled RRL injected 30 minutes before 7.4 MBq tracer, any time after injection): not shown clearly
Tumor visualisation in planar gamma imaging (HepG2 xenografts; experimental group, 7.4 MBq i.v., at 2–6 h after administration): imaged clearly
